Literature values, collected in US20040067887A1, “Human VNO receptor (R1)” (priority 2000, published 2004).

Assays:
[1] = test system: human VNO; details: for physiological responses after administration to the human VNO: administered to the human VNO
[2] = test system: human brain; details: human volunteers; delivered non-specifically to the nasal cavity; no detectable odor (Sobel et al. 1999)

Row | SMILES | site specificity of physiological responses in vivo ([1]; human subjects, VNO versus olfactory or respiratory epithelium (Monti-Bloch et al. 1994)) | activation of brain regions detected by fMRI [2] | physiological responses after administration to the human VNO [1]
1 | CC(=O)Oc1ccc2c(c1)CC[C@@H]1[C@@H]2CC[C@]2(C)C=CC[C@@H]12 [PH15, estra-1,3,5(10),16-tetraen-3yl acetate] | induces physiological responses in vivo only when applied specifically to the VNO | dose-dependent activation of the anterior medial thalamus, the inferior frontal gyrus, and other regions of the human brain | –
2 | C[C@@]12C=CC[C@H]1[C@@H]1CCC3=CC(=O)CC[C@]3(C)[C@H]1CC2 [androsta-4,16-dien-3-one] | – | – | induce bradycardia, bradypnea, increases in core body temperature, and other physiological responses
3 | C[C@@]12C=CC[C@H]1[C@@H]1CCc3cc(O)ccc3[C@H]1CC2 [estra-1,3,5(10),16-tetraen-3-ol] | – | – | induce bradycardia, bradypnea, increases in core body temperature, and other physiological responses
